Measured values from PubChem BioAssay AID1259411 (Chemical Carcinogenesis Research Information System (CCRIS), 2018).
Activity calls are given as the source filed them. No rule for the calls is given here.

Tested on: rodent carcinogenicity bioassays, tumor incidence
Experiment: CCRIS carcinogenicity studies
In short: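 Archive of carcinogenicity, mutagenicity, tumor promotion and tumor inhibition results drawn from journals, NCI reports and other sources, expert-reviewed; covers 1985-2011 and is no longer updated.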

## CO/N=C(/C1=NOCCO1)c1ccccc1Oc1ncnc(Oc2ccccc2Cl)c1F
Species: Mouse, Strain/Sex: CD-1/Female (50/Group), Route: Oral, Dose: 0, 29.5, 204.0, 1265.1 mg/kg/day of 94.3% - 94.5% fluoxastrobin in diet for 18 mo, study duration 18 mo, Dose: 0, 29.5, 204.0, 1265.1 mg/kg/day of 94.3% - 94.5% fluoxastrobin in diet for 18 mo, study duration 18 mo
  carcinogen call: inactive; negative
Species: Mouse, Strain/Sex: CD-1/Male (50/Group), Route: Oral, Dose: 0, 18.6, 135.4, 775.6 mg/kg/day of 94.3% - 94.5% fluoxastrobin in diet for 18 mo, study duration 18 mo, Dose: 0, 18.6, 135.4, 775.6 mg/kg/day of 94.3% - 94.5% fluoxastrobin in diet for 18 mo, study duration 18 mo
  carcinogen call: inactive; negative
Species: Rat, Strain/Sex: Wistar/Female (50/Group), Route: Oral, Dose: 0, 6.9, 35.2, 181.3, 1083.2 mg/kg/day of 94.3-94.6% fluoxastrobin in diet for 2 yr, study duration 2 yr, Dose: 0, 6.9, 35.2, 181.3, 1083.2 mg/kg/day of 94.3-94.6% fluoxastrobin in diet for 2 yr, study duration 2 yr, Tumor Site: Type of Lesion: Uterus: adenocarcinoma (highest dose only)
  carcinogen call: active; positive
Species: Rat, Strain/Sex: Wistar/Male (50/Group), Route: Oral, Dose: 0, 2.1, 5.2, 53.0, 271.9 mg/kg/day of 94.3-94.6% fluoxastrobin in diet for 2 yr, study duration 2 yr, Dose: 0, 2.1, 5.2, 53.0, 271.9 mg/kg/day of 94.3-94.6% fluoxastrobin in diet for 2 yr, study duration 2 yr
  carcinogen call: inactive; negative

## O=[N+]([O-])c1ccccc1Cl
Species: MOUSE, Strain/Sex: CD-1/FEMALE, Route: ORAL, Dose: 3000, 6000 MG/KG IN DIET FOR 18 MO, Tumor Site: Type of Lesion: LIVER: HEPATOCELLULAR CARCINOMA
  carcinogen call: active; positive

## COc1ccc(C(c2ccc(OC)cc2)C(Cl)(Cl)Cl)cc1
Species: MOUSE, Strain/Sex: B6C3F1/FEMALE, Route: ORAL, Dose: 0, 997, 1994 PPM IN DIET, TWA, Dose: 0, 997, 1994 PPM IN DIET, TWA
  carcinogen call: inactive; negative
Species: MOUSE, Strain/Sex: B6C3F1/MALE, Route: ORAL, Dose: 0, 1746, 3491 PPM IN DIET, TWA, Dose: 0, 1746, 3491 PPM IN DIET, TWA
  carcinogen call: inactive; negative
Species: MOUSE, Strain/Sex: BALB/MALE, Route: ORAL, Dose: 750 PPM IN DIET, Tumor Site: Type of Lesion: TESTES: INTERSTITIAL CELL CARCINOMA
  carcinogen call: active; positive
Species: RAT, Strain/Sex: OSBORNE-MENDEL/FEMALE, Route: ORAL, Dose: 0, 750, 1385 PPM IN DIET, TWA, Dose: 0, 750, 1385 PPM IN DIET, TWA
  carcinogen call: inactive; negative
Species: RAT, Strain/Sex: OSBORNE-MENDEL/MALE, Route: ORAL, Dose: 0, 448, 845 PPM IN DIET, TWA, Dose: 0, 448, 845 PPM IN DIET, TWA
  carcinogen call: inactive; negative

## CN(C)CCOC(C)(c1ccccc1)c1ccccn1 (stereo not given)
Species: MOUSE, Strain/Sex: B6C3F1/FEMALE, Route: ORAL, Dose: 0, 190, 375, 750 PPM IN DIET FOR 2 YR (STUDY DURATION: 2 YR), Dose: 0, 190, 375, 750 PPM IN DIET FOR 2 YR (STUDY DURATION: 2 YR), Tumor Site: Type of Lesion: LIVER: HEPATOCELLULAR ADENOMA, THYROID: FOLLICULAR CELL ADENOMA
  carcinogen call: active; positive
Species: MOUSE, Strain/Sex: B6C3F1/MALE, Route: ORAL, Dose: 0, 190, 375, 750 PPM IN DIET FOR 2 YR (STUDY DURATION: 2 YR), Dose: 0, 190, 375, 750 PPM IN DIET FOR 2 YR (STUDY DURATION: 2 YR), Tumor Site: Type of Lesion: LIVER: HEPATOCELLULAR ADENOMA, THYROID: FOLLICULAR CELL ADENOMA
  carcinogen call: active; positive
Species: RAT, Strain/Sex: F344/FEMALE, Route: ORAL, Dose: 0, 500, 1000, 2000 PPM IN DIET FOR 2 YR (STUDY DURATION: 2 YR), Dose: 0, 500, 1000, 2000 PPM IN DIET FOR 2 YR (STUDY DURATION: 2 YR)
  carcinogen call: inactive; negative

## O=C(O)CN(CC(=O)O)CC(=O)O
Species: MOUSE, Strain/Sex: B6C3F1/FEMALE, Route: ORAL, Dose: 0, 2500, 5000 PPM IN DIET (STUDY DURATION: 18 MO), Dose: 0, 2500, 5000 PPM IN DIET (STUDY DURATION: 18 MO)
  carcinogen call: inactive; negative
Species: MOUSE, Strain/Sex: B6C3F1/FEMALE, Route: ORAL, Dose: 0, 7500, 15000 PPM IN DIET, Dose: 0, 7500, 15000 PPM IN DIET
  carcinogen call: inactive; negative
Species: MOUSE, Strain/Sex: B6C3F1/MALE, Route: ORAL, Dose: 0, 2500, 5000 PPM IN DIET (STUDY DURATION: 18 MO), Dose: 0, 2500, 5000 PPM IN DIET (STUDY DURATION: 18 MO)
  carcinogen call: inactive; negative
Species: MOUSE, Strain/Sex: B6C3F1/MALE, Route: ORAL, Dose: 0, 7500, 15000 PPM IN DIET, Dose: 0, 7500, 15000 PPM IN DIET, Tumor Site: Type of Lesion: KIDNEY: MALIGNANT TUMOR
  carcinogen call: active; positive
Species: RAT, Strain/Sex: F344/FEMALE, Route: ORAL, Dose: 0, 200, 2000, 20000 PPM IN DIET (STUDY DURATION: 24 MO), Dose: 0, 200, 2000, 20000 PPM IN DIET (STUDY DURATION: 24 MO), Tumor Site: Type of Lesion: URINARY BLADDER: TUMOR, URETER: TUMOR, KIDNEY: TUMOR, Tumor Site: Type of Lesion: URINARY BLADDER: TUMOR, URETER: TUMOR, KIDNEY: TUMOR
  carcinogen call: active; positive
Species: RAT, Strain/Sex: F344/FEMALE, Route: ORAL, Dose: 0, 7500, 1500 PPM IN DIET (STUDY DURATION: 18 MO), Dose: 0, 7500, 1500 PPM IN DIET (STUDY DURATION: 18 MO), Tumor Site: Type of Lesion: URINARY BLADDER: PAPILLOMA OR SQUAMOUS CELL CARCINOMA OR TRANSITIONAL CELL CARCINOMA
  carcinogen call: equivocal
Species: RAT, Strain/Sex: F344/FEMALE, Route: ORAL, Dose: 0, 7500, 15000 PPM IN DIET, Dose: 0, 7500, 15000 PPM IN DIET, Tumor Site: Type of Lesion: URINARY BLADDER: MALIGNANT TUMOR
  carcinogen call: active; positive
Species: RAT, Strain/Sex: F344/MALE, Route: ORAL, Dose: 0, 200, 2000, 20000 PPM IN DIET (STUDY DURATION: 24 MO), Dose: 0, 200, 2000, 20000 PPM IN DIET (STUDY DURATION: 24 MO), Tumor Site: Type of Lesion: KIDNEY: TUMOR, URETER: TUMOR
  carcinogen call: active; positive
Species: RAT, Strain/Sex: F344/MALE, Route: ORAL, Dose: 0, 7500, 15000 PPM IN DIET (STUDY DURATION: 18 MO), Dose: 0, 7500, 15000 PPM IN DIET (STUDY DURATION: 18 MO), Tumor Site: Type of Lesion: KIDNEY: TUBULAR CELL ADENOCARCINOMA OR SARCOMA METASTATIC OR HAMARTOMA, RENAL PELVIS: TRANSIT CELL PAPILLOMA
  carcinogen call: equivocal
Species: RAT, Strain/Sex: F344/MALE, Route: ORAL, Dose: 0, 7500, 15000 PPM IN DIET, Dose: 0, 7500, 15000 PPM IN DIET
  carcinogen call: inactive; negative
Species: RAT, Strain/Sex: SPRAGUE-DAWLEY/MALE, Route: ORAL, Dose: 0, 1000 PPM (PURITY NOT REPORTED) IN DRINKING WATER FOR 2 YR, Tumor Site: Type of Lesion: KIDNEY: TUBULAR CELL ADENOMA OR ADENOCARCINOMA
  carcinogen call: active; positive

## CN(N=O)c1ccccc1
Species: HAMSTER, Strain/Sex: SYRIAN/FEMALE, Route: GAVAGE, Dose: 0, 5 MG/KG 1/WK FOR 50 WK (TOTAL DOSE: 0; 1.8 MMOL) (STUDY DURATION: LIFETIME), Dose: 0, 5 MG/KG 1/WK FOR 50 WK (TOTAL DOSE: 0; 1.8 MMOL) (STUDY DURATION: LIFETIME), Tumor Site: Type of Lesion: LIVER: CHOLANGIOMA
  carcinogen call: active; positive
Species: MOUSE, Strain/Sex: SWISS/MALE,FEMALE, Route: ORAL, Dose: 0.070 G/L IN DRINKING WATER FOR 28 WK, Tumor Site: Type of Lesion: LUNG: ADENOMA
  carcinogen call: active; positive
Species: RAT, Strain/Sex: ALBINO/MALE,FEMALE, Route: ORAL, Dose: 2.0 MG IN 10 ML DRINKING WATER (AVE) 5/WK FOR 52 WK, Tumor Site: Type of Lesion: ESOPHAGUS: PAPILLOMA, SQUAMOUS CELL CARCINOMA, FORESTOMACH: PAPILLOMA, SQUAMOUS CELL CARCINOMA, MOUTH: PAPILLOMA, SQUAMO, Tumor Site: Type of Lesion: ESOPHAGUS: PAPILLOMA, SQUAMOUS CELL CARCINOMA, FORESTOMACH: PAPILLOMA, SQUAMOUS CELL CARCINOMA, MOUTH: PAPILLOMA, SQUAMO
  carcinogen call: active; positive
Species: RAT, Strain/Sex: STRAIN-BD, Route: ORAL, Dose: 14 MG/KG/D IN DIET FOR 250 D (AVE TOTAL DOSE: 3.4 G/KG), Tumor Site: Type of Lesion: ESOPHAGUS: SQUAMOUS CELL CARCINOMA
  carcinogen call: active; positive
Species: RAT, Strain/Sex: STRAIN-CB/MALE,FEMALE, Route: ORAL, Dose: 5 MG AS 0.2% FOR 7 MO THEN 2.5 MG AS 0.1% IN DRINKING WATER 1/D, 6/WK, Tumor Site: Type of Lesion: ESOPHAGUS: BENIGN TUMOR OR MALIGNANT TUMOR
  carcinogen call: active; positive

## [Cr]
Species: HUMAN, Route: INHALATION, ORAL, Tumor Site: Type of Lesion: LUNG
  carcinogen call: active; positive
